Source: patent publication US5300512A, “Benzimidazole compounds” (G. D. Searle & Co., priority 1992, dated 1994)

How the values were obtained:
5-HT3 receptor = molecular target: T1, 5-HT3 receptor (Rattus norvegicus, UniProt P35563); test: [3H]-GR65630 radioligand binding to 5-HT3 receptor, rat brain cortex membranes
T1 construct: Brain cortices were obtained from male rats and a membrane fraction prepared by standard techniques; from tissue; host or cells: rat brain cortex, membrane fraction
T1 sequence (P35563 24-483): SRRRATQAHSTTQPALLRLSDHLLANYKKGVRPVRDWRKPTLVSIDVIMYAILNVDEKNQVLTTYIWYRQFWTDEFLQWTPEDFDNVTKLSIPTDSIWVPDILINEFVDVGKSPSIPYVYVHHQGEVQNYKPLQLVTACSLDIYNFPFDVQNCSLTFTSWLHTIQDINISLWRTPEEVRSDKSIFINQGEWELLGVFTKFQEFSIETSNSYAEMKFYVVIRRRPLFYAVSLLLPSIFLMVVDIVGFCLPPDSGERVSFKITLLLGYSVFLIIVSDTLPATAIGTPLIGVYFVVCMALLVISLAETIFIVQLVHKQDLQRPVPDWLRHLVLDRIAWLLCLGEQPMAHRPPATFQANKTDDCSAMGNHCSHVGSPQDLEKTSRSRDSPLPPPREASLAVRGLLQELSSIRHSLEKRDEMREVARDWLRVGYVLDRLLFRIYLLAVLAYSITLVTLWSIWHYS
Procedure: (§1) 5-HT4 agonist activity was determined in the in vitro rat tunica muscularis mucosae (TMM) assay. (Baxter et al., Naunyn Schmied Arch. Pharmacol, 1991, 343, 439). The 5-HT4 agonist or antagonist and/or 5-HT3 antagonist activity of the compounds of the invention can be determined by these assays described herein, without undue experimentation.
GR65630 binds to the 5-HT3 receptor. Brain cortices were obtained from male rats and a membrane fraction prepared by standard techniques. 0.04 mg of membrane prep was incubated with 0.2 nM […] for 60 minutes at 22° C. […] Membranes were filtered and washed 3 times and the filters were counted to determine [3H]-GR65630 specifically bound. (Kilpatrick G. J., Jones B. J. and Tyers M. B. Identification and distribution of 5-HT3 receptors in rat brain using radioligand binding. Nature, 330: 746-748, 1987).

5-HT3 = test: Bezold-Jarisch reflex: reduction of 5-HT-induced bradycardia in anesthetized mice; format: in vivo; conditions: i.p., 30 min before 5-HT 0.25 mg/kg i.v.; >50% reduction of bradycardia considered significant
Procedure: as §1
The compound to be evaluated was administered i.p. (mg/kg) to a group of 3 mice. […] This method has been described by Saxena, P. R. and Lawang, A., Arch. Int. Pharmacodyn., 277: 235-252, 1985.

5-HT4 receptor = molecular target: T2, 5-HT4 receptor (Rattus norvegicus, UniProt Q62758); test: In vitro functional assay for serotonin 5-HT4 agonism: rat TMM (relaxation of carbachol-contracted tunica muscularis mucosae); format: biochemical; conditions: rat esophagus, carbachol (3 μM) contracted, 37° C, tissues from 5 rats
T2 construct: The inner tunica muscularis mucosa was mounted under 0.2-0.3 g of tension in a tissue bath; from tissue; host or cells: rat intrathoracic esophagus, tunica muscularis mucosae
T2 sequence (Q62758 whole entry): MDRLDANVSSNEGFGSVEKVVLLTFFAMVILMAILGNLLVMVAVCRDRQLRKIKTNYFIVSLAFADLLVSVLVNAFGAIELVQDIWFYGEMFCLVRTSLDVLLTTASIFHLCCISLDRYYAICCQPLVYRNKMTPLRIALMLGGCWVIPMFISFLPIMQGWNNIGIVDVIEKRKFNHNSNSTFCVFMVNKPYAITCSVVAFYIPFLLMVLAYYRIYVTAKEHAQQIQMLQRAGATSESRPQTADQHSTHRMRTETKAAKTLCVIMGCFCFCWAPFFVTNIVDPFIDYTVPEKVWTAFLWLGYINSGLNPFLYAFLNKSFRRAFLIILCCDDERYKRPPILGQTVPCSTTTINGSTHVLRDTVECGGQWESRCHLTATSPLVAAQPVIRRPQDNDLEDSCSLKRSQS
Procedure: as §1
Agonist activity was determined utilizing relaxation of carbachol-contracted rat tunica muscularis mucosae. One 2 cm segment of intrathoracic esophagus proximal to the diaphragm was removed from male rats, weighing approximately 300 gm, and the outer muscle layers removed. The inner tunica muscularis mucosa was mounted under 0.2-0.3 g of tension in a tissue bath containing oxygenated Tyrode's solution at 37° C. […] Following a 30 min equilibrium period, tissues were isometrically contracted with carbachol (3 μM) to obtain a tonic contraction. A stable plateau was obtained within 20 min when test compound was added cumulatively to relax the muscle strip. EC50 values were obtained for each agonist in tissues from 5 rats.

| SMILES | Hill Coefficient (5-HT3 receptor; [3H]-GR65630 bound (0.2 nM)) | Minimum Effective Dose (MED) (5-HT3) [mg/kg] | further results |
| --- | --- | --- | --- |
| c1ccc2nc(N3CCNCC3)ccc2c1 [Quipazine] | 0.86 |  |  |
| CC(C)n1c(=O)n(C(=O)NCC23CCN(CC2)CC3)c2ccccc21 [Example 10, N-(1-azabicyclo[2.2.2]octan-4-ylmethyl)-2,3-dihydro-3-(1-methylethyl)-2-oxo-1H-benzimidazole-1-carboxamide] |  | 0.03 | IC50 (5-HT3 receptor; [3H]-GR65630 bound (0.2 nM)): 8.6 nM; Ki (5-HT3 receptor; [3H]-GR65630 bound (0.2 nM)): 4.3 nM; EC50 (5-HT4 receptor): 125 nM |
| CN1C2CCC1CC(OC(=O)c1c[nH]c3ccccc13)C2 (stereo not shown) [ICS 205-930] | 1.0 |  |  |
| CN1[C@@H]2C[C@@H](OC(=O)[C@H](CO)c3ccccc3)C[C@H]1[C@@H]1O[C@@H]12 [scopolamine] |  | 2.5 |  |
| Cc1[nH]cnc1CCC(=O)c1cn(C)c2ccccc12 [GR65630] |  |  | % Specific Binding (5-HT3 receptor; [3H]-GR65630, non-specific binding with 1 uM ICS 205-930): 70% |
| O=c1[nH]c2ccccc2n1CCCN1CCC(n2c(=O)[nH]c3cc(Cl)ccc32)CC1 [domperidone] |  | > 10 |  |
| COc1ccc2[nH]cc(C3=CCNCC3)c2c1 [RU24969] | 1.0 |  |  |
| CN1C2CCCC1CC(NC(=O)c1nn(C)c3ccccc13)C2 (stereo not shown) [BRL-43694] |  | 0.05 |  |
| CCN(CC)CCNC(=O)c1cc(Cl)c(N)cc1OC [metoclopramide] |  | 5 |  |
| COc1cc(N)c(Cl)cc1C(=O)NC1CN2CCC1CC2 (stereo not shown) [Zacopride] | 0.86 |  |  |
